According to patent US9113629B2, “4-amino-6-(4-substituted-phenyl)-picolinates and 6-amino-2-(4-substituted-phenyl)-pyrimidine-4-carboxylates and their use as herbicides” (DOW AGROSCIENCES LLC, priority 2013, dated 2015):

Legend:
Experiment in all cases: Pre-emergent Test I herbicidal activity
Assay type in all cases: in vivo
[1] = tested on: SETFA: giant foxtail (Setaria faberi); settings: pre-emergence, 336 h, read-out: Visual Growth Reduction (%) 14 Days After Application, SETFA
Description: (§1) Pre-emergent Test I Seeds of test species were planted into round plastic pots (5-inch diameter) containing sandy loam soil. After planting, all pots were sub-irrigated 16 h prior to compound application. Compounds were dissolved in a 97:3 v/v (volume/volume) mixture of acetone and dimethyl sulfoxide (DMSO) and diluted to the appropriate concentration in a final application solution containing water, acetone, isopropanol, DMSO and Agri-dex (crop oil concentrate) in a 59:23:15:1.0:1.5 v/v ratio and 0.02% w/v (weight/volume) of Triton X-155 to obtain the spray solution containing the highest application rate. Additional application rates were obtained by serial dilution of the high rate solution with the above application solution. Formulated compound (2.7 mL) was applied pipetted evenly over the soil surface followed by incorporation with water (15 mL). Following treatment, pots were returned to the greenhouse for the duration of the experiment. The greenhouse was programmed for an approximate 15 h photoperiod which was maintained at about 23-29° C. during the day and 22-28° C. during the night. Nutrients and water were added on a regular basis through surface irrigation and supplemental lighting was provided with overhead metal halide 1000-Watt lamps as necessary. Herbicidal effect ratings were obtained 14 days after treatment. All evaluations were made relative to appropriate controls on a scale of 0 to 100 where 0 represents no herbicidal effect and 100 represents plant death or lack of emergence from the soil.

[2] = tested on: AVEFA: wild oats (Avena fatua); settings: pre-emergence, 336 h, read-out: Visual Growth Reduction (%) 14 Days After Application, AVEFA
Description: as §1

[3] = tested on: HELAN: sunflower (Helianthus annuus); settings: pre-emergence, 336 h, read-out: Visual Growth Reduction (%) 14 Days After Application, HELAN
Description: as §1

[4] = tested on: AMARE: redroot pigwseed (Amaranthus retroflexus); settings: pre-emergence, 336 h, read-out: Visual Growth Reduction (%) 14 Days After Application, AMARE
Description: as §1

[5] = tested on: IPOHE: ivyleaf morningglory (Ipomoea hederecea); settings: pre-emergence, 336 h, read-out: Visual Growth Reduction (%) 14 Days After Application, IPOHE
Description: as §1

[6] = tested on: ECHCG: barnyardgrass (Echinochloa crus-galli); settings: pre-emergence, 336 h, read-out: Visual Growth Reduction (%) 14 Days After Application, ECHCG
Description: as §1

Q: `COC(=O)c1nc(-c2ccccc2)c(F)c(N)c1Cl` [Compound 181] was tested. Which pest or weed control at 1760 g/ha ([1]; 1.76 kg ai/ha) did it give?
A: 75 to 84%

Q: And the pest or weed control at 1760 g/ha ([2]; 1.76 kg ai/ha)?
A: 0 to 29%

Q: What about the pest or weed control at 1760 g/ha ([3]; 1.76 kg ai/ha) of the same molecule?
A: 85 to 94%

Q: And the pest or weed control at 1760 g/ha ([4]; 1.76 kg ai/ha)?
A: 95 to 100%

Q: What about the pest or weed control at 1760 g/ha ([5]; 1.76 kg ai/ha) of the same molecule?
A: 85 to 94%

Q: What does the source list for `COC(=O)c1nc(-c2ccc(C(F)F)c(F)c2)cc(N)c1Cl` [Compound 196]?
A: pest or weed control at 3840 g/ha ([1]; 3.84 kg ai/ha): 95 to 100%; pest or weed control at 3840 g/ha ([6]; 3.84 kg ai/ha): 85 to 94%; pest or weed control at 3840 g/ha ([3]; 3.84 kg ai/ha): 95 to 100%; pest or weed control at 3840 g/ha ([4]; 3.84 kg ai/ha): 95 to 100%; pest or weed control at 3840 g/ha ([5]; 3.84 kg ai/ha): 95 to 100%

Q: With `C=Cc1c(C(=O)OC)nc(-c2ccc(Cl)c(F)c2)c(F)c1N` [Compound 215, methyl 4-amino-6-(4-chloro-3-fluorophenyl)-5-fluoro-3-vinylpicolinate] as the molecule, how does the pest or weed control at 3960 g/ha ([1]; 3.96 kg ai/ha) read?
A: 85 to 94%

Q: What about the pest or weed control at 3960 g/ha ([2]; 3.96 kg ai/ha) of the same molecule?
A: 85 to 94%

Q: What about the pest or weed control at 3960 g/ha ([6]; 3.96 kg ai/ha) of the same molecule?
A: 95 to 100%

Q: What about the pest or weed control at 3960 g/ha ([3]; 3.96 kg ai/ha) of the same molecule?
A: 95 to 100%

Q: And the pest or weed control at 3960 g/ha ([4]; 3.96 kg ai/ha)?
A: 95 to 100%

Q: And the pest or weed control at 3960 g/ha ([5]; 3.96 kg ai/ha)?
A: 95 to 100%

Q: With `N#Cc1ccc(-c2nc(C(=O)O)c(Cl)c(N)c2F)cc1F` [Compound 156] as the molecule, how does the pest or weed control at 4040 g/ha ([1]; 4.04 kg ai/ha) read?
A: 95 to 100%

Q: And the pest or weed control at 4040 g/ha ([2]; 4.04 kg ai/ha)?
A: 75 to 84%

Q: What about the pest or weed control at 4040 g/ha ([6]; 4.04 kg ai/ha) of the same molecule?
A: 95 to 100%

Q: And the pest or weed control at 4040 g/ha ([3]; 4.04 kg ai/ha)?
A: 95 to 100%

Q: What about the pest or weed control at 4040 g/ha ([4]; 4.04 kg ai/ha) of the same molecule?
A: 95 to 100%

Q: And the pest or weed control at 4040 g/ha ([5]; 4.04 kg ai/ha)?
A: 95 to 100%
